Assay results published in US12479866B2, “Boron-containing rho kinase inhibitors” (Percipiad, Inc., priority 2019, dated 2025).

Assays:
[1] = target: T1, ROCK2 (Homo sapiens (Human), UniProt O75116); experiment: Stability in varied buffers and temperatures, measured by ROCK2 inhibition; assay type: physicochemical
[2] = target: AKT1 (Homo sapiens (Human), UniProt P31749); experiment: AGC Kinase Selectivity Profiling (ADP-Glo); assay type: biochemical; conditions: 1 μM compound; AGC Panel; read-out: Percent enzyme activity inhibition, AKT1
AKT1, sequence (P31749 whole entry): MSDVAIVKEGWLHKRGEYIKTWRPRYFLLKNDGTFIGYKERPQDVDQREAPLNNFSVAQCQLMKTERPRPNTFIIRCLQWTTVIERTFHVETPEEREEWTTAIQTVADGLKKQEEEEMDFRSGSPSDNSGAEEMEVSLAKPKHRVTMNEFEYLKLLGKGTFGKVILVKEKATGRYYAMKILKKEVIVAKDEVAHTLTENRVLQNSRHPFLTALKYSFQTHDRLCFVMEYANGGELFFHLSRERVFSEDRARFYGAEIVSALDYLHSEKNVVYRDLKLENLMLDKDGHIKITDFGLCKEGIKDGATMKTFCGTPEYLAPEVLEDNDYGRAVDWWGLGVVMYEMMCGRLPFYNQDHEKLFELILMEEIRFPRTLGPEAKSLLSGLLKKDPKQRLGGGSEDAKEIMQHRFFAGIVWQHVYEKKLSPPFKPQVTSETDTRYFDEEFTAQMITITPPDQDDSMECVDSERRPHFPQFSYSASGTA
Text: ROCK1 (also called ROCK I, ROKβ, Rho-kinase β, or p160ROCK) and ROCK2 ((also known as ROCK II, ROKα, or Rho kinase) belong to AGC family of serine/threonine kinases. The group of AGC kinases consists of 63 evolutionarily related serine/threonine protein kinases comprising PDK1, PKB/Akt, SGK, PKC, PRK/PKN, MSK, RSK, S6K, PKA, PKG, DMPK, MRCK, ROCK, NDR, LATS, CRIK, MAST, GRK, Sgk494, and YANK, while two other families, Aurora and PLK, are the most closely related to the group (Leroux et al., AGC kinases, mechanisms of regulation and innovative drug development, Semin Cancer Biol. 2018 February; 48:1-17).

[3] = target: T1, ROCK2; experiment: Stability in varied buffers and temperatures, measured by ROCK2 inhibition; assay type: physicochemical; remark: listed apart in the source
Protocol: Stability in Varied Buffers and Temperatures. […] (room temperature), 37° C., 4° C., and −20° C. in water, 150 mM NaCl, pH 5 and 6 buffers, or buffers containing 150 mM NaCl. No visible precipitates were observed after storage.

[4] = target: ROCK1 (Homo sapiens (Human), UniProt Q13464); experiment: Kinase Selectivity Profiling General Panel (ADP-Glo); assay type: biochemical; conditions: 1 μM compound, read-out: Percent enzyme activity inhibition, ROCK1
ROCK1, sequence (Q13464 whole entry): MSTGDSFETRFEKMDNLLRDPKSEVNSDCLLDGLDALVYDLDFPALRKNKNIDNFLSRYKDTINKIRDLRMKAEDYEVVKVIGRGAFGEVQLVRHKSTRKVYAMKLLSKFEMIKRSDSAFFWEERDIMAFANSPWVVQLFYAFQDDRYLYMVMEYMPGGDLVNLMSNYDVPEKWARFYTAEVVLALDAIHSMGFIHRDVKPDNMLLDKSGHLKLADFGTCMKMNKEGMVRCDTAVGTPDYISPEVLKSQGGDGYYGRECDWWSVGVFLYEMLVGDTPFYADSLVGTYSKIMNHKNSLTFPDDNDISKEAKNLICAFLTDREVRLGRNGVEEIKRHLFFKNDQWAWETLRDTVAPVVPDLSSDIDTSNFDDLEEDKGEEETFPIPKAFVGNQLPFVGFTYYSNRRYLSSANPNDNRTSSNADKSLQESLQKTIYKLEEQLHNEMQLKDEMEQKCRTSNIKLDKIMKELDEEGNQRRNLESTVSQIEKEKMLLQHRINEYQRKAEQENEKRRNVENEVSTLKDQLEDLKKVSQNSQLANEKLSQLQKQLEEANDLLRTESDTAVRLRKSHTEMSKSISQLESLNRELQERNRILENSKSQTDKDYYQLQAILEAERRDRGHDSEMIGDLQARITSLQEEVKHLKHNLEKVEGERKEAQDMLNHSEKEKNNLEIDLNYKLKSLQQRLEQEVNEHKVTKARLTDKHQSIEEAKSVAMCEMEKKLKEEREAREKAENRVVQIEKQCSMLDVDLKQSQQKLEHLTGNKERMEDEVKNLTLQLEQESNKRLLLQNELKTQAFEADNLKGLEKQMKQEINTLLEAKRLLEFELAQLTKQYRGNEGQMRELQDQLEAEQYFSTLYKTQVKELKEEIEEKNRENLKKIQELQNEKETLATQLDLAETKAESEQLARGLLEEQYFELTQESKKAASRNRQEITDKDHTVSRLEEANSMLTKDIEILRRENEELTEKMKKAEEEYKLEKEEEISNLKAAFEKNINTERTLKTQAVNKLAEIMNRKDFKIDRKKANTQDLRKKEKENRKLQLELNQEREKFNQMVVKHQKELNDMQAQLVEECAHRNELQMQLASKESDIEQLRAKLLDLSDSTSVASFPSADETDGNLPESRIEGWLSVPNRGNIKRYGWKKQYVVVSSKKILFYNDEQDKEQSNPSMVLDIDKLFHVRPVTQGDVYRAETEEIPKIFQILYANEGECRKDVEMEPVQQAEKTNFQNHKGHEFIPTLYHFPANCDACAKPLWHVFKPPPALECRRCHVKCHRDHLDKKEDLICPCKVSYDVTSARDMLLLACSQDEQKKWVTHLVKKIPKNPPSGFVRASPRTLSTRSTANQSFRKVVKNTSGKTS
Protocol: (§1) After this incubation, 5 μl of ADP-Glo™ reagent was added to 5 μl reaction and incubated for 40 minutes. Then, 10 μl of Kinase Detection Reagent added to all assay wells in the assay plate and incubated at room temperature for 30 minutes. […]

[5] = target: CK1g1 (Homo sapiens (Human), UniProt Q9HCP0); experiment: as above; assay type: biochemical; conditions: 1 μM compound, read-out: Percent enzyme activity inhibition, CK1g1
CK1g1, sequence (Q9HCP0 whole entry): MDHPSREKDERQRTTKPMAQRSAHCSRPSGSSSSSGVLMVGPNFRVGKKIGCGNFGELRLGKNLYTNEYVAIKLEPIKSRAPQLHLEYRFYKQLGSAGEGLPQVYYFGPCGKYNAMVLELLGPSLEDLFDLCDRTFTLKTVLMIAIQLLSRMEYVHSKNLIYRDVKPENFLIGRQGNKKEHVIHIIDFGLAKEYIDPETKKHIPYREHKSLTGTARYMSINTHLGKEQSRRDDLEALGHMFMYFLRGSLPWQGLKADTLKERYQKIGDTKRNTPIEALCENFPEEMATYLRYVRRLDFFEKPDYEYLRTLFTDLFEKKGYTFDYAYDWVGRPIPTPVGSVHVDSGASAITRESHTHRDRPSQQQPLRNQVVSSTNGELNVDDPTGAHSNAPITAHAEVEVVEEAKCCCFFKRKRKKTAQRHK
Protocol: as §1

[6] = target: GSK3b (Homo sapiens (Human), UniProt P49841); experiment: as above; assay type: biochemical; conditions: 1 μM compound, read-out: Percent enzyme activity inhibition, GSK3b
GSK3b, sequence (P49841 whole entry): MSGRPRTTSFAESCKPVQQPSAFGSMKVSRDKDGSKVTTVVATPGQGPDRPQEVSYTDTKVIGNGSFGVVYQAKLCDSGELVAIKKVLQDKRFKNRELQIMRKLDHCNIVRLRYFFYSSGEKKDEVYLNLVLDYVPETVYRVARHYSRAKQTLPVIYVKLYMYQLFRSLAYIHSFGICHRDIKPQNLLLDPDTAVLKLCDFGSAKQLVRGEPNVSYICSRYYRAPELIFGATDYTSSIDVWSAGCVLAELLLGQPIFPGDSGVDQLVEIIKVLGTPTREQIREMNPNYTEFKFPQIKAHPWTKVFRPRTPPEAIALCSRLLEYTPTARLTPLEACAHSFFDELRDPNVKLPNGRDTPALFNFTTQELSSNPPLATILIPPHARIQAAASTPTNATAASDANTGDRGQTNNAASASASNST
Protocol: as §1

[7] = target: MAPKAPK2 (Homo sapiens (Human), UniProt P49137); experiment: as above; assay type: biochemical; conditions: 1 μM compound, read-out: Percent enzyme activity inhibition, MAPKAPK2
MAPKAPK2, sequence (P49137 whole entry): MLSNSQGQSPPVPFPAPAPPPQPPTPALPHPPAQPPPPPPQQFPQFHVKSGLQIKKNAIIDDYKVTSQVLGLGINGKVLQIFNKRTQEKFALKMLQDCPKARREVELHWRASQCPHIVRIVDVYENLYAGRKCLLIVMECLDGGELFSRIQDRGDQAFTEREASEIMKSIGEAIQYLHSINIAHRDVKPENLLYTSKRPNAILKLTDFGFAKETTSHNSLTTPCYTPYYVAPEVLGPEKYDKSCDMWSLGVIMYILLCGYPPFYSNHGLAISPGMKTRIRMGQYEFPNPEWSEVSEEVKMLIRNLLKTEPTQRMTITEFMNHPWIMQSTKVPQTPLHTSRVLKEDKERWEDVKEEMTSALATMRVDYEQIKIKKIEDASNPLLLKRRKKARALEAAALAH
Protocol: as §1

[8] = target: CHK1 (Homo sapiens (Human), UniProt O14757); experiment: as above; assay type: biochemical; conditions: 1 μM compound, read-out: Percent enzyme activity inhibition, CHK1
CHK1, sequence (O14757 whole entry): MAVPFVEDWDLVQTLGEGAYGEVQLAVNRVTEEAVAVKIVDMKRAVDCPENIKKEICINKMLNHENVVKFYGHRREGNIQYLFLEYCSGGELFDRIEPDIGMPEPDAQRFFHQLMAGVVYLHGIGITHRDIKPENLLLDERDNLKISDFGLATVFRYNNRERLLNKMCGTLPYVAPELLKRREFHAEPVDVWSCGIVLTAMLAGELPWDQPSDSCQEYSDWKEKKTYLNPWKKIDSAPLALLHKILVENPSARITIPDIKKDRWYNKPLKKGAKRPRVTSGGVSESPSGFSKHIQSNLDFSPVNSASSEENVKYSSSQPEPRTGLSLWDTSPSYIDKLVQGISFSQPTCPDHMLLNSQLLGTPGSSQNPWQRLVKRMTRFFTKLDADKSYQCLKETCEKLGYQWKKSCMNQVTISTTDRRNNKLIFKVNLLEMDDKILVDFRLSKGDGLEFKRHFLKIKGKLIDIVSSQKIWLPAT
Protocol: as §1

[9] = Solubility Assay #3, qualitative solubility in borate and citrate buffers; assay type: physicochemical; conditions: borate and citrate buffers at a series of pH values
[10] = Solubility Assay #1, equilibrium solubility in pH 7.4 aqueous buffer; conditions: pH 7.4 phosphate buffer, thermodynamic from solid

T1 sequence (O75116 whole entry): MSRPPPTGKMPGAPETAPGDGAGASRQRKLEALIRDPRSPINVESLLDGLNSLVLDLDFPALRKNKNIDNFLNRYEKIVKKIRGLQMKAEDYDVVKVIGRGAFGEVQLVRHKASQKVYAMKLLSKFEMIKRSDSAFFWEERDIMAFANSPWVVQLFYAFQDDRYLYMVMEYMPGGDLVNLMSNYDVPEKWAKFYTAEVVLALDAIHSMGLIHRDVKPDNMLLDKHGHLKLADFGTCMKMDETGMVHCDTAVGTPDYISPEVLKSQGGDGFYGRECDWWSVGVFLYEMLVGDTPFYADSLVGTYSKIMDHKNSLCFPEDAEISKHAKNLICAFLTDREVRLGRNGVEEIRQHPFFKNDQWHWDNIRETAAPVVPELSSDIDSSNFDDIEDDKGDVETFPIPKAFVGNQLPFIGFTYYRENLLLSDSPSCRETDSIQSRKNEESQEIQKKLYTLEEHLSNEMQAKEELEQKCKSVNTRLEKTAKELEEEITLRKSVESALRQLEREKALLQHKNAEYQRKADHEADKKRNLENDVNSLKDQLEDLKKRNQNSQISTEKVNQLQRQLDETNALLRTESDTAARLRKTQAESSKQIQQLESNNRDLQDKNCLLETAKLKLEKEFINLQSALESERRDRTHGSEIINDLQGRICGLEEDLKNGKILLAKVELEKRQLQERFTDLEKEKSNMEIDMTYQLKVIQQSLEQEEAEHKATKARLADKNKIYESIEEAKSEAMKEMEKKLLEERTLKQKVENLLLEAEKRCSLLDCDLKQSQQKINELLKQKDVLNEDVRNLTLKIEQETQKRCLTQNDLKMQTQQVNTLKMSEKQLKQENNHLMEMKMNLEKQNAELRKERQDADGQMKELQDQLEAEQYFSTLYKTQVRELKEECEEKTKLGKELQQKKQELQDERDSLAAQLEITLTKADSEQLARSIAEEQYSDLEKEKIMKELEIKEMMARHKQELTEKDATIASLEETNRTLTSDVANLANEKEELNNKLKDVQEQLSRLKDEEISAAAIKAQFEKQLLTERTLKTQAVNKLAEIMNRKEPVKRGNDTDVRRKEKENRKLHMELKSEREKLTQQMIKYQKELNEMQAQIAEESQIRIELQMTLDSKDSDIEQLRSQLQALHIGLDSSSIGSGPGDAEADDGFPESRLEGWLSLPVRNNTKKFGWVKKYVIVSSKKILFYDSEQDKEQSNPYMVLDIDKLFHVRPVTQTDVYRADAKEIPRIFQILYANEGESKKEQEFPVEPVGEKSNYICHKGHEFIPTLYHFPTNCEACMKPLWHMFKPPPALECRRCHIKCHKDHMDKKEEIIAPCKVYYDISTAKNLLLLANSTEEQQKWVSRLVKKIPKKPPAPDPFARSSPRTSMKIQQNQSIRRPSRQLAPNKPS

Structure (SMILES): Cl.Cl.NCC(C(=O)Nc1ccc2cnccc2c1)c1ccc(B(O)O)cc1 (stereo not shown) [Compound 10•2HCl]
- % ROCK2 inhibition at 20 nM ([1]; 25 mM Borate pH 7 (0.5 mg/ml), 15 days at 23° C.): 36%
- % ROCK2 inhibition at 20 nM ([1]; 25 mM Borate, pH 7 (0.5 mg/ml), 15 days at −20° C.): 34%
- % ROCK2 inhibition at 20 nM ([1]; 25 mM Borate, pH 7, 150 mM NaCl (0.5 mg/ml), 15 days at 23° C.): 32%
- Stability in solution ([1]; pH 5 and 7 buffers, room temperature): stable in pH 5 and 7 buffers at room temperature for 15 days
- inhibition at 1 µM [2]: 52%
- % ROCK2 inhibition at 20 nM ([3]; 25 mM Borate pH 5 (0.5 mg/ml), 15 days at 23° C.): 31%
- % ROCK2 inhibition at 20 nM ([3]; 25 mM Borate, pH 5 (0.5 mg/ml), 15 days at −20° C.): 32%
- % ROCK2 inhibition at 20 nM ([3]; 25 mM Borate, pH 5, 150 mM NaCl (0.5 mg/ml), 15 days at 23° C.): 29%
- % ROCK2 inhibition at 20 nM ([3]; 150 mM NaCl (0.5 mg/ml), 0 days at 23° C.): 35%
- % ROCK2 inhibition at 20 nM ([3]; 150 mM NaCl (0.5 mg/ml), 15 days at 23° C.): 35%
- % ROCK2 inhibition at 20 nM ([3]; 150 mM NaCl (2 mg/ml), 120 days at 4° C.): 31%
- % ROCK2 inhibition at 20 nM ([3]; 150 mM NaCl (2 mg/ml), 120 days at 37° C.): 35%
- Stability in solution ([3]; 150 mM NaCl, 37° C. and 4° C.): stable for 4 months
- % ROCK2 inhibition at 20 nM ([3]; Water (0.5 mg/ml), 15 days at 23° C.): 34%
- % ROCK2 inhibition at 20 nM ([3]; Water (0.5 mg/ml), 15 days at −20° C.): 33%
- inhibition at 1 µM [4]: 98%
- inhibition at 1 µM [5]: 0%
- inhibition at 1 µM [6]: 0%
- inhibition at 1 µM [7]: 30%
- inhibition at 1 µM [8]: 21%
- pH at which precipitation occurs [9]: ~8.5
- solubility [10]: 39.1 µM
